ChEMBL document CHEMBL5154767, “Discovery of dual-target ligands binding to beta2-adrenoceptor and cysteinyl-leukotriene receptor for the potential treatment of asthma from natural products derived DNA-encoded library” (Eur J Med Chem, 2022)
Calls of active or inactive are those of the source. The rule behind the calls is not given here.

How the values were obtained:
Mus musculus [1] = assay: Anti-asthmatic activity against ovalbumin-induced asthmatic mouse model assessed as infiltration of inflammatory cells in the perivascular and peribronchiolar region of lungs at 2.6 mg/kg, po administered once daily for 7 days by H and E staining based light microscopic analysis; type: functional, organism-based; conditions: time 7.0 day
Mus musculus [2] = assay: Anti-asthmatic activity against ovalbumin-induced asthmatic mouse model assessed as decrease in IL-4 level in BALF at 2.6 mg/kg, po administered once daily for 7 days by ELISA; type: functional, organism-based; conditions: time 7.0 day
Mus musculus [3] = assay: Anti-asthmatic activity against ovalbumin-induced asthmatic mouse model assessed as decrease in IgE level in serum at 2.6 mg/kg, po administered once daily for 7 days by ELISA; type: functional, organism-based; conditions: time 7.0 day
Mus musculus [4] = assay: Anti-asthmatic activity against ovalbumin-induced asthmatic mouse model assessed as decrease in IL-5 level in BALF at 2.6 mg/kg, po administered once daily for 7 days by ELISA; type: functional, organism-based; conditions: time 7.0 day
Mus musculus [5] = assay: Increase in beta2 adrenoceptor expression in bronchus in ovalbumin-induced asthmatic mouse model at 2.6 mg/kg, po administered once daily for 7 days by Western blot analysis; type: functional, organism-based; conditions: time 7.0 day
[6] = molecular target: T1, Beta-2 adrenergic receptor (Homo sapiens, UniProt P07550); assay: Binding affinity to immobilized Halo tag-fused beta2 adrenoceptor (unknown origin) expressed in Escherichia coli BL21 (DE3) assessed as retention time by chromatography
Target sequence in this assay (P07550 whole entry, looked up, the tested form may be a part): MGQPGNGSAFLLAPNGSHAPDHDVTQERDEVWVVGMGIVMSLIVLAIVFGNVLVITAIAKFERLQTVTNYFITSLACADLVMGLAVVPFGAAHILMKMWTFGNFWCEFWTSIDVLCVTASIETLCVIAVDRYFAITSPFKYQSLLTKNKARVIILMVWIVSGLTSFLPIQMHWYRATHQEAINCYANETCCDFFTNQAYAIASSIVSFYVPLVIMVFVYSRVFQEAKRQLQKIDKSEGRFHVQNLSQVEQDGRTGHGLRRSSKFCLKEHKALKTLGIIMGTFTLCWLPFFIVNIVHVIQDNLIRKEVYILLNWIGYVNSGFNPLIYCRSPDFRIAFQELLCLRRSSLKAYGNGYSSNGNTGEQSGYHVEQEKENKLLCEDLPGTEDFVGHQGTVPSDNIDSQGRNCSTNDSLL

[7] = molecular target: T2, Uracil nucleotide/cysteinyl leukotriene receptor (Homo sapiens, UniProt Q13304)
T2 sequence (Q13304 whole entry, the tested form may be a part): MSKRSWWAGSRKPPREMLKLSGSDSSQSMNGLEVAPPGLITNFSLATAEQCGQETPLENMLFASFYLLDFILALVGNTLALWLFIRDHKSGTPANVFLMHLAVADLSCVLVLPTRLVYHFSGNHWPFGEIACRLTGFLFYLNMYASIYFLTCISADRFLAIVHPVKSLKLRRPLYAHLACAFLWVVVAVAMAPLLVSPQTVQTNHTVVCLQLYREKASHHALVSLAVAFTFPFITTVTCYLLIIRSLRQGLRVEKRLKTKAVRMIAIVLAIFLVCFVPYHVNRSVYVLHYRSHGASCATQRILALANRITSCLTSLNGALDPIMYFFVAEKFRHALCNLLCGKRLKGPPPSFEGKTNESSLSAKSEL
Description: Binding affinity to immobilized Halo tag-fused CysLT receptor (unknown origin) expressed in Escherichia coli BL21 (DE3) assessed as retention time by chromatography

[8] = molecular target: T1, Beta-2 adrenergic receptor; assay: Binding affinity to immobilized Halo tag-fused beta2 adrenoceptor (unknown origin) expressed in Escherichia coli BL21 (DE3) by receptor chromatography
Target sequence in this assay (P07550 whole entry, looked up, the tested form may be a part): as the sequence (P07550 whole entry, looked up, the tested form may be a part) above

Mus musculus [9] = assay: Anti-asthmatic activity against ovalbumin-induced asthmatic mouse model assessed as decrease in IL-4 level in BALF administered orally once daily for 7 days by ELISA; type: functional, organism-based; conditions: dose 10-20 mg/kg, route po, time 7.0 day, DDE = dose-dependent effect
Mus musculus [10] = assay: Increase in beta2 adrenoceptor expression in bronchus in ovalbumin-induced asthmatic mouse model administered orally once daily for 7 days by Western blot analysis; type: functional; conditions: dose 10-20 mg/kg, route po, time 7.0 day, DDE = dose-dependent effect
[11] = molecular target: T2, Uracil nucleotide/cysteinyl leukotriene receptor; remark: listed apart in the source
Description: Binding affinity to immobilized Halo tag-fused CysLT receptor (unknown origin) expressed in Escherichia coli BL21 (DE3) assessed as association rate constant by receptor chromatography

[12] = molecular target: T1, Beta-2 adrenergic receptor; assay: Binding affinity to immobilized Halo tag-fused beta2 adrenoceptor (unknown origin) expressed in Escherichia coli BL21 (DE3) assessed as dissociation rate constant by receptor chromatography
Target sequence in this assay (P07550 whole entry, the tested form may be a part): as the sequence (P07550 whole entry, looked up, the tested form may be a part) above

[13] = molecular target: T2, Uracil nucleotide/cysteinyl leukotriene receptor; assay: Binding affinity to immobilized Halo tag-fused CysLT receptor (unknown origin) expressed in Escherichia coli BL21 (DE3) assessed as dissociation rate constant by receptor chromatography
Mus musculus [14] = assay: Anti-asthmatic activity against ovalbumin-induced asthmatic mouse model assessed as infiltration of inflammatory cells in the perivascular and peribronchiolar region of lungs at 10 to 20 mg/kg, po administered once daily for 7 days by H and E staining based light microscopic analysis; type: functional, organism-based; conditions: dose 10-20 mg/kg, time 7.0 day
Mus musculus [15] = assay: Anti-asthmatic activity against ovalbumin-induced asthmatic mouse model assessed as decrease in IL-13 level in BALF administered orally once daily for 7 days by ELISA; type: functional, organism-based; conditions: dose 10-20 mg/kg, route po, time 7.0 day, DDE = dose-dependent effect
[16] = molecular target: T1, Beta-2 adrenergic receptor; assay: Binding affinity to immobilized Halo tag-fused beta2 adrenoceptor (unknown origin) expressed in Escherichia coli BL21 (DE3) assessed as association rate constant by receptor chromatography
Target sequence in this assay (P07550 whole entry, looked up, the tested form may be a part): as above

Mus musculus [17] = assay: Decrease in CysLT receptor expression in bronchus in ovalbumin-induced asthmatic mouse model administered orally once daily for 7 days by Western blot analysis; type: functional; conditions: dose 10-20 mg/kg, route po, time 7.0 day, DDE = dose-dependent effect
Mus musculus [18] = assay: Anti-asthmatic activity against ovalbumin-induced asthmatic mouse model assessed as decrease in IgE level in serum administered orally once daily for 7 days by ELISA; type: functional, organism-based; conditions: dose 10-20 mg/kg, route po, time 7.0 day, DDE = dose-dependent effect
Mus musculus [19] = assay: Anti-asthmatic activity against ovalbumin-induced asthmatic mouse model assessed as infiltration of inflammatory cells in the perivascular and peribronchiolar region of lungs at 20 mg/kg, po administered once daily for 7 days by H and E staining based light microscopic analysis; type: functional, organism-based; conditions: time 7.0 day

Question: Which Activity (Mus musculus [1]) does the source give for `CN(C)C(=O)Oc1cc(OC(=O)N(C)C)cc(C(O)CNC(C)(C)C)c1` (stereo unspecified) here?
Answer: Active

Question: What about the Activity (Mus musculus [2]) of the same compound?
Answer: Active

Question: And the Activity (Mus musculus [3])?
Answer: Active

Question: What about the Activity (Mus musculus [4]) of the same compound?
Answer: Active

Question: What about the Activity (Mus musculus [5]) of the same compound?
Answer: Active

Question: And the Retention time [6]?
Answer: 4.1 min

Question: For `CC(c1cc2ccccc2s1)N(O)C(N)=O` (stereo unspecified), which Retention time [7] is on record?
Answer: 3.5 min

Question: Which K [8] does the source give for `CC1(C)[C@@H](O)CC[C@]2(C)[C@H]3C(=O)C=C4[C@@H]5C[C@@](C)(C(=O)NCCc6ccc(O)cc6)CC[C@]5(C)CC[C@@]4(C)[C@]3(C)CC[C@@H]12` here?
Answer: 6.57 10^4/M

Question: What about the Activity (Mus musculus [9]) of the same compound?
Answer: Dde

Question: What about the Activity (Mus musculus [10]) of the same compound?
Answer: Dde

Question: And the Ka [11]?
Answer: 4.85 10^5/M/s

Question: What about the Kd [12] of the same compound?
Answer: 7.52 s⁻¹

Question: What about the Kd [13] of the same compound?
Answer: 17.2 s⁻¹

Question: And the Activity (Mus musculus [14])?
Answer: Active

Question: And the Activity (Mus musculus [15])?
Answer: Dde

Question: What about the Ka [16] of the same compound?
Answer: 4.94 10^5/M/s

Question: What about the inhibition (Mus musculus [17]) of the same compound?
Answer: Dde

Question: And the Activity (Mus musculus [18])?
Answer: Dde

Question: `CC(C)(O)c1ccccc1CC[C@@H](SCC1(CC(=O)[O-])CC1)c1cccc(/C=C/c2ccc3ccc(Cl)cc3n2)c1.[Na+]` [MONTELUKAST SODIUM] was tested. Which Retention time [7] did it give?
Answer: 8.7 min

Question: What about the Ka [11] of the same compound?
Answer: 5.18 10^5/M/s

Question: And the Kd [13]?
Answer: 12.6 s⁻¹

Question: For `CNC(C)Cc1ccccc1OC` (stereo unspecified) [METHOXYPHENAMINE], which K [8] is on record?
Answer: 0.5 10^4/M

Question: And the Kd [12]?
Answer: 0.98 s⁻¹

Question: What about the Ka [16] of the same compound?
Answer: 1.93 10^5/M/s

Question: And the Retention time [6]?
Answer: 3.6 min

Question: How did the Activity (Mus musculus [19]) turn out when `CC1(C)[C@@H](O)CC[C@]2(C)[C@H]3C(=O)C=C4[C@@H]5C[C@@](C)(C(=O)O)CC[C@]5(C)CC[C@@]4(C)[C@]3(C)CC[C@@H]12` was run?
Answer: Active
